# Measured values published in ChEMBL document CHEMBL1201862, “PubChem BioAssay data set” (2004).
#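 Growth conditions: 96-well plates. Treatment: test compound, 48 hours, 5 concentrations. Analysis: linear interpolation between bracketing concentrations; unreached endpoints set to highest concentration. GI50 marks 50% less growth.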 Active and inactive are the calls of the source. Rule as the data show it: active = GI50 up to about 1.1 µM and inactive = higher.
# Tests used:
# Experiment in all cases: DTP human tumour cell line panel, 48 h
# CAKI-1 = test system: CAKI-1
# EKVX = test system: EKVX
# HCC 2998 = test system: HCC 2998
# HCT-116 = test system: HCT-116
# HL-60 = test system: HL-60
# LOX IMVI = test system: LOX IMVI
# MOLT-4 = test system: MOLT-4
# Malme-3M = test system: Malme-3M
# OVCAR-5 = test system: OVCAR-5
# SK-MEL-2 = test system: SK-MEL-2
# SK-MEL-5 = test system: SK-MEL-5
# SK-OV-3 = test system: SK-OV-3
# SW-620 = test system: SW-620
# T47D = test system: T47D
# KM12 = test system: KM12
# SNB-75 = test system: SNB-75
# NCI/ADR-RES = test system: NCI/ADR-RES
Compound,GI50 (CAKI-1),GI50 (EKVX),GI50 (HCC 2998),GI50 (HCT-116),GI50 (HL-60),GI50 (LOX IMVI),GI50 (MOLT-4),GI50 (Malme-3M),GI50 (OVCAR-5),GI50 (SK-MEL-2),GI50 (SK-MEL-5),GI50 (SK-OV-3),GI50 (SW-620),GI50 (T47D),GI50 (KM12),GI50 (SNB-75),GI50 (NCI/ADR-RES)
CNc1ncnc2c1cnn2CCCCO,> 100 µM (inactive),> 100 µM (inactive),> 100 µM (inactive),> 100 µM (inactive),> 100 µM (inactive),> 100 µM (inactive),> 100 µM (inactive),> 100 µM (inactive),> 100 µM (inactive),> 100 µM (inactive),> 100 µM (inactive),> 100 µM (inactive),> 100 µM (inactive),> 100 µM (inactive),,,
CN(C)CCNC(=O)c1cccc2c1Oc1c(cccc1[N+](=O)[O-])O2,0.297 µM (active),3.22 µM (inactive),1.04 µM (active),0.817 µM (active),0.306 µM (active),0.908 µM (active),0.298 µM (active),1.33 µM (inactive),2.18 µM (inactive),0.29 µM (active),1.28 µM (inactive),,1.06 µM (active),0.323 µM (active),1.26 µM (inactive),1.24 µM (inactive),
CC(c1ccccc1)n1cncc1C(=O)NN1CCN(C)CC1 (stereo not given),> 10 µM (inactive),> 10 µM (inactive),,> 10 µM (inactive),> 10 µM (inactive),> 10 µM (inactive),> 10 µM (inactive),> 10 µM (inactive),> 10 µM (inactive),> 10 µM (inactive),> 10 µM (inactive),> 10 µM (inactive),> 10 µM (inactive),> 10 µM (inactive),> 10 µM (inactive),,> 10 µM (inactive)
COc1ccc(/C=C/c2nsc(/C=C/c3ccc(OC)cc3)n2)cc1,> 100 µM (inactive),> 100 µM (inactive),,> 100 µM (inactive),24.8 µM (inactive),55.1 µM (inactive),33 µM (inactive),> 100 µM (inactive),> 100 µM (inactive),> 100 µM (inactive),> 100 µM (inactive),> 100 µM (inactive),,38 µM (inactive),> 100 µM (inactive),> 100 µM (inactive),> 100 µM (inactive)
O=C(O)CNc1ncc2c(n1)-c1ccccc1OC2,> 100 µM (inactive),> 100 µM (inactive),,> 100 µM (inactive),64.3 µM (inactive),> 100 µM (inactive),> 100 µM (inactive),> 100 µM (inactive),> 100 µM (inactive),> 100 µM (inactive),> 100 µM (inactive),> 100 µM (inactive),> 100 µM (inactive),,> 100 µM (inactive),> 100 µM (inactive),> 100 µM (inactive)
CC1(C)O[C@@H]([C@@H](O)[C@H](O)C2SCCCS2)[C@@H](CO)O1,> 100 µM (inactive),> 100 µM (inactive),,> 100 µM (inactive),> 100 µM (inactive),> 100 µM (inactive),> 100 µM (inactive),> 100 µM (inactive),> 100 µM (inactive),> 100 µM (inactive),> 100 µM (inactive),> 100 µM (inactive),> 100 µM (inactive),> 100 µM (inactive),> 100 µM (inactive),> 100 µM (inactive),> 100 µM (inactive)
C=C1C(O)C23CCC4C(C(=O)O)(C(=O)O)CC(OC5OC(CO)C(O)C(OC(=O)CCc6ccccc6)C5NC(=O)CC(C)C)CC4(C)C2CCC1(O)C3 (stereo not given),> 100 µM (inactive),> 100 µM (inactive),> 100 µM (inactive),> 100 µM (inactive),> 100 µM (inactive),> 100 µM (inactive),> 100 µM (inactive),> 100 µM (inactive),> 100 µM (inactive),> 100 µM (inactive),> 100 µM (inactive),> 100 µM (inactive),> 100 µM (inactive),> 100 µM (inactive),> 100 µM (inactive),> 100 µM (inactive),
COc1cc(/C=C/C(=O)c2ccc(NS(=O)(=O)c3cc([N+](=O)[O-])ccc3C)cc2)cc(OC)c1OC,3.74 µM (inactive),5.36 µM (inactive),,2.38 µM (inactive),3.37 µM (inactive),3.29 µM (inactive),1.85 µM (inactive),,4.37 µM (inactive),2.67 µM (inactive),4.18 µM (inactive),4.01 µM (inactive),4.49 µM (inactive),12.1 µM (inactive),2.62 µM (inactive),4.39 µM (inactive),8.41 µM (inactive)
COC(=O)/C=C\n1c(C)cc(=O)[nH]c1=O,,> 100 µM (inactive),> 100 µM (inactive),> 100 µM (inactive),,,> 100 µM (inactive),> 100 µM (inactive),> 100 µM (inactive),> 100 µM (inactive),> 100 µM (inactive),67.5 µM (inactive),> 100 µM (inactive),> 100 µM (inactive),> 100 µM (inactive),58.2 µM (inactive),> 100 µM (inactive)
CCOC(=O)CCC(C(=O)OCC)n1nnc2cc(Nc3c(C)[n+]([O-])c4cc(F)c(OCC)cc4[n+]3[O-])ccc21 (stereo not given),> 100 µM (inactive),> 100 µM (inactive),,> 100 µM (inactive),> 100 µM (inactive),> 100 µM (inactive),> 100 µM (inactive),> 100 µM (inactive),> 100 µM (inactive),83.4 µM (inactive),> 100 µM (inactive),> 100 µM (inactive),> 100 µM (inactive),> 100 µM (inactive),> 100 µM (inactive),37.4 µM (inactive),> 100 µM (inactive)
CCC(=O)Oc1ccc2c(c1)c(=O)c1c(NCCCN(C)C)ccc3nnn2c31,0.664 µM (active),1.17 µM (inactive),1.25 µM (inactive),0.334 µM (active),,1.03 µM (active),< 0.0204 µM (active),3.98 µM (inactive),8.28 µM (inactive),13 µM (inactive),1.9 µM (inactive),4.36 µM (inactive),0.322 µM (active),15.7 µM (inactive),0.796 µM (active),,3.31 µM (inactive)
CSCCCNC(=O)c1csc(-c2csc(CCNC(=O)CNC(=O)OC(C)(C)C)n2)n1,> 100 µM (inactive),> 100 µM (inactive),> 100 µM (inactive),> 100 µM (inactive),,> 100 µM (inactive),40.7 µM (inactive),> 100 µM (inactive),> 100 µM (inactive),> 100 µM (inactive),47.4 µM (inactive),> 100 µM (inactive),> 100 µM (inactive),,> 100 µM (inactive),> 100 µM (inactive),> 100 µM (inactive)
CC1=NN2C=Nc3c(c(-c4ccc(Cl)cc4)cn3-c3ccc(C)cc3)C2N1 (stereo not given),97.3 µM (inactive),> 100 µM (inactive),> 100 µM (inactive),46.2 µM (inactive),> 100 µM (inactive),> 100 µM (inactive),,> 100 µM (inactive),> 100 µM (inactive),> 100 µM (inactive),87.9 µM (inactive),61.9 µM (inactive),> 100 µM (inactive),,,30.5 µM (inactive),55.8 µM (inactive)
COC(=O)/C=C/c1cc(O)c2c(c1)[C@H](C(=O)OC)[C@@H](c1ccc(O)c(O)c1)O2,0.544 µM (active),8.67 µM (inactive),19.2 µM (inactive),0.0499 µM (active),,0.0757 µM (active),0.0753 µM (active),,35.7 µM (inactive),0.0783 µM (active),0.0335 µM (active),0.319 µM (active),0.0428 µM (active),,0.283 µM (active),0.0195 µM (active),0.158 µM (active)
COc1cccc2c1CCc1sc(CN3CCN(C)CC3)nc1-2,> 100 µM (inactive),> 100 µM (inactive),49.4 µM (inactive),57.7 µM (inactive),,,22.4 µM (inactive),> 100 µM (inactive),> 100 µM (inactive),> 100 µM (inactive),28.1 µM (inactive),> 100 µM (inactive),> 100 µM (inactive),33.8 µM (inactive),80.2 µM (inactive),> 100 µM (inactive),> 100 µM (inactive)
COc1cccc(Nc2nc(-c3cccs3)nc3cc(OC)c(OC)cc23)c1,29 µM (inactive),35.8 µM (inactive),,26.4 µM (inactive),42.1 µM (inactive),,53.6 µM (inactive),68.9 µM (inactive),31.9 µM (inactive),35.8 µM (inactive),25.4 µM (inactive),53 µM (inactive),29 µM (inactive),42.8 µM (inactive),30.4 µM (inactive),32.8 µM (inactive),24.3 µM (inactive)
Cc1ccc2nc3ccccc3c(C3C4C(=O)N(c5ccc(Br)cc5Cl)C(=O)C4ON3C(C(N)=O)c3ccccc3)c2c1 (stereo not given),4.9 µM (inactive),6.56 µM (inactive),,13.7 µM (inactive),> 25 µM (inactive),22.8 µM (inactive),8.73 µM (inactive),> 25 µM (inactive),> 25 µM (inactive),18.1 µM (inactive),19.1 µM (inactive),> 25 µM (inactive),> 25 µM (inactive),> 25 µM (inactive),> 25 µM (inactive),> 25 µM (inactive),
CC(=O)OC1CC2(C)C(=CC1C1SCCS1)CCC1C2CCC2(C)C(OC(C)=O)CCC12 (stereo not given),> 100 µM (inactive),> 100 µM (inactive),,> 100 µM (inactive),> 100 µM (inactive),> 100 µM (inactive),> 100 µM (inactive),> 100 µM (inactive),> 100 µM (inactive),45.4 µM (inactive),> 100 µM (inactive),27.9 µM (inactive),> 100 µM (inactive),> 100 µM (inactive),> 100 µM (inactive),13.2 µM (inactive),> 100 µM (inactive)
